Experimental data: publication PMC4844702, “Selective inhibition of the kinase DYRK1A by targeting its folding process” (Nature Communications, 2016)

Legend:
Assay in all cases: Kinase panel (Carna)
Assay type in all cases: biochemical
p38δ = biological target: T1, p38δ (Homo sapiens, UniProt O15264)
T1 construct: purchased Carna Biosciences
Excerpt: (§1) Detailed information on the assay conditions is available on the website of Carna Biosciences (http://www.carnabio.com).

Erk5 = biological target: T2, Erk5 (Homo sapiens, UniProt Q13164)
T2 construct: purchased Carna Biosciences

EEF2K = biological target: T3, EEF2K (Homo sapiens, UniProt O00418)
T3 construct: purchased Carna Biosciences
Excerpt: as §1

MNK1 = biological target: T4, MNK1 (Homo sapiens, UniProt Q9BUB5)
T4 construct: purchased Carna Biosciences

EPHA1 = biological target: T5, EPHA1 (Homo sapiens, UniProt P21709)
T5 construct: purchased Carna Biosciences

CDK3/CycE1 = biological target: T6, CDK3/CycE1 (Homo sapiens, UniProt Q00526)
T6 construct: purchased Carna Biosciences
Excerpt: as §1

MINK = biological target: T7, MINK (Homo sapiens, UniProt Q8N4C8)
T7 construct: purchased Carna Biosciences
Excerpt: as §1

CDC7/ASK = biological target: T8, CDC7/ASK (Homo sapiens, UniProt O00311)
T8 construct: purchased Carna Biosciences
Excerpt: as §1

PLK2 = biological target: T9, PLK2 (Homo sapiens, UniProt Q9NYY3)
T9 construct: purchased Carna Biosciences

AKT2 = biological target: T10, AKT2 (Homo sapiens, UniProt P31751)
T10 construct: purchased Carna Biosciences
Excerpt: as §1

CK2α2/β = biological target: T11, CK2α2/β (Homo sapiens, UniProt P19784)
T11 construct: purchased Carna Biosciences

PAK2 = biological target: T12, PAK2 (Homo sapiens, UniProt Q13177)
T12 construct: purchased Carna Biosciences
Excerpt: as §1

FAK = biological target: T13, FAK (Homo sapiens, UniProt Q05397)
T13 construct: purchased Carna Biosciences
Excerpt: as §1

MAP2K1_Cascade = biological target: T14, MAP2K1_Cascade (Homo sapiens, UniProt Q02750)
T14 construct: purchased Carna Biosciences

Erk2 = biological target: T15, Erk2 (Homo sapiens, UniProt P28482)
T15 construct: purchased Carna Biosciences

CaMK2β = biological target: T16, CaMK2β (Homo sapiens, UniProt Q13554)
T16 construct: purchased Carna Biosciences

MARK1 = biological target: T17, MARK1 (Homo sapiens, UniProt Q9P0L2)
T17 construct: purchased Carna Biosciences
Excerpt: as §1

MAPKAPK5 = biological target: T18, MAPKAPK5 (Homo sapiens, UniProt Q8IW41)
T18 construct: purchased Carna Biosciences

CDK9/CycT1 = biological target: T19, CDK9/CycT1 (Homo sapiens, UniProt P50750)
T19 construct: purchased Carna Biosciences
Excerpt: as §1

EGFR = biological target: T20, EGFR (Homo sapiens, UniProt P00533)
T20 construct: purchased Carna Biosciences

SIK = biological target: T21, SIK (Homo sapiens, UniProt P57059)
T21 construct: purchased Carna Biosciences

PIK3CA/PIK3R1 = biological target: T22, PIK3CA/PIK3R1 (Homo sapiens, UniProt P42336)
T22 construct: purchased Carna Biosciences
Excerpt: as §1

PDHK2 = biological target: T23, PDHK2 (Homo sapiens, UniProt Q15119)
T23 construct: purchased Carna Biosciences
Excerpt: as §1

PKCθ = biological target: T24, PKCθ (Homo sapiens, UniProt Q04759)
T24 construct: purchased Carna Biosciences
Excerpt: as §1

HER4 = biological target: T25, HER4 (Homo sapiens, UniProt Q15303)
T25 construct: purchased Carna Biosciences
Excerpt: as §1

NuaK2 = biological target: T26, NuaK2 (Homo sapiens, UniProt Q9H093)
T26 construct: purchased Carna Biosciences

PKACα = biological target: T27, PKACα (Homo sapiens, UniProt P17612)
T27 construct: purchased Carna Biosciences

JNK2 = biological target: T28, JNK2 (Homo sapiens, UniProt P45984)
T28 construct: purchased Carna Biosciences

PBK = biological target: T29, PBK (Homo sapiens, UniProt Q96KB5)
T29 construct: purchased Carna Biosciences
Excerpt: as §1

EPHA5 = biological target: T30, EPHA5 (Homo sapiens, UniProt P54756)
T30 construct: purchased Carna Biosciences

p70S6K = biological target: T31, p70S6K (Homo sapiens, UniProt P23443)
T31 construct: purchased Carna Biosciences
Excerpt: as §1

MAPKAPK3 = biological target: T32, MAPKAPK3 (Homo sapiens, UniProt Q16644)
T32 construct: purchased Carna Biosciences

LCK = biological target: T33, LCK (Homo sapiens, UniProt P06239)
T33 construct: purchased Carna Biosciences
Excerpt: as §1

TRKC = biological target: T34, TRKC (Homo sapiens, UniProt Q16288)
T34 construct: purchased Carna Biosciences
Excerpt: as §1

ARG = biological target: T35, ARG (Homo sapiens, UniProt P42684)
T35 construct: purchased Carna Biosciences
Excerpt: as §1

MOS_Cascade = biological target: T36, MOS_Cascade (Homo sapiens, UniProt P00540)
T36 construct: purchased Carna Biosciences

IKKα = biological target: T37, IKKα (Homo sapiens, UniProt O15111)
T37 construct: purchased Carna Biosciences
Excerpt: as §1

skMLCK = biological target: T38, skMLCK (Homo sapiens, UniProt Q9H1R3)
T38 construct: purchased Carna Biosciences

MARK4 = biological target: T39, MARK4 (Homo sapiens, UniProt Q96L34); details: 10 µM FINDY
T39 construct: purchased Carna Biosciences
Excerpt: as §1

TAOK2 = biological target: T40, TAOK2 (Homo sapiens, UniProt Q9UL54)
T40 construct: purchased Carna Biosciences
Excerpt: as §1

MRCKα = biological target: T41, MRCKα (Homo sapiens, UniProt Q5VT25)
T41 construct: purchased Carna Biosciences

PDGFRα = biological target: T42, PDGFRα (Homo sapiens, UniProt P16234)
T42 construct: purchased Carna Biosciences
Excerpt: as §1

p70S6Kβ = biological target: T43, p70S6Kβ (Homo sapiens, UniProt Q9UBS0)
T43 construct: purchased Carna Biosciences
Excerpt: as §1

ITK = biological target: T44, ITK (Homo sapiens, UniProt Q08881)
T44 construct: purchased Carna Biosciences
Excerpt: as §1

T11 sequence (P19784 whole entry): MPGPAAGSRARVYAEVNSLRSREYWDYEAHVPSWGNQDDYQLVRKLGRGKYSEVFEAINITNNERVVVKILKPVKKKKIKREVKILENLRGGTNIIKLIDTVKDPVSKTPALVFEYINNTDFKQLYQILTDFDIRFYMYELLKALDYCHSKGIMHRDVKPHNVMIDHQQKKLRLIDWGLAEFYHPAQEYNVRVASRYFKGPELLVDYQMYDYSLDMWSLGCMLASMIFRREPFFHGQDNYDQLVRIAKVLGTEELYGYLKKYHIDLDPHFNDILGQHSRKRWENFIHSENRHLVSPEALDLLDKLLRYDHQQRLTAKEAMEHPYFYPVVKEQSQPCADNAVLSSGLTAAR
T11 sequence (P67870 whole entry partner): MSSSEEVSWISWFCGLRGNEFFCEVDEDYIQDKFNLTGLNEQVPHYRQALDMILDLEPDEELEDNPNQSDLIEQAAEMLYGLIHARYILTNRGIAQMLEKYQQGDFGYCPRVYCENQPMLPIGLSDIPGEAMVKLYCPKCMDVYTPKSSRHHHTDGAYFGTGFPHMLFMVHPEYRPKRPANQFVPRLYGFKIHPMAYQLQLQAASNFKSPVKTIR
T40 sequence (Q9UL54 whole entry): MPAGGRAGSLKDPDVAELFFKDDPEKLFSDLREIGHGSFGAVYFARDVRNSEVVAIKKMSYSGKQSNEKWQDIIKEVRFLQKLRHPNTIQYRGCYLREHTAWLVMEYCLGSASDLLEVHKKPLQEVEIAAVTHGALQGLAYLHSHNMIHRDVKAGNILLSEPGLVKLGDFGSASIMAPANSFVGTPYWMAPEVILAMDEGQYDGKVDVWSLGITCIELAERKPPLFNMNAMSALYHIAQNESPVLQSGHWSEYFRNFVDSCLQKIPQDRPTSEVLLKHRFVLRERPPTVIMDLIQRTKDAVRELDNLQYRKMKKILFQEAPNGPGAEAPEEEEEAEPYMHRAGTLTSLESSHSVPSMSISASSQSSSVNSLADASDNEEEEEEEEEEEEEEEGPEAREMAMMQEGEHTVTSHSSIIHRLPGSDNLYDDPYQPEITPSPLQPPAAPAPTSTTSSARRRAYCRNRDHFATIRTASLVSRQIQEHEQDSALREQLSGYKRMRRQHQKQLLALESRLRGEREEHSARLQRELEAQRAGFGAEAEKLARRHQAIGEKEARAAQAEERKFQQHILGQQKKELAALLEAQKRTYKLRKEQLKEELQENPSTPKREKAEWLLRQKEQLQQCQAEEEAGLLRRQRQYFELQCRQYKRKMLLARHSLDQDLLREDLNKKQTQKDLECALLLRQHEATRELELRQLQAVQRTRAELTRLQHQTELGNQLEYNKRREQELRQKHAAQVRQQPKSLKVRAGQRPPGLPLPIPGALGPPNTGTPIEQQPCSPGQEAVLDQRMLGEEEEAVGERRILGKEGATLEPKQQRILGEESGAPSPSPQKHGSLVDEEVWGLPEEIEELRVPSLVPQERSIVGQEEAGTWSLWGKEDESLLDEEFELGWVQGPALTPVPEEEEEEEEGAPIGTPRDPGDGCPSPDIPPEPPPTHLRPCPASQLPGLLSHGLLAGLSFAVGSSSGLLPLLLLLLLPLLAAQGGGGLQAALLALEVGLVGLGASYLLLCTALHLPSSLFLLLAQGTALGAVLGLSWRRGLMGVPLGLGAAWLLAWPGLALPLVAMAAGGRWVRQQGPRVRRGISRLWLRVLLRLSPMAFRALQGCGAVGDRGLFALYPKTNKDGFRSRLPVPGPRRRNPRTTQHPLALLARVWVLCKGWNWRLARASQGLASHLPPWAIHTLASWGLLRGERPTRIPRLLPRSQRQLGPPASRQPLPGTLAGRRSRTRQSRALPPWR
T21 sequence (P57059 whole entry): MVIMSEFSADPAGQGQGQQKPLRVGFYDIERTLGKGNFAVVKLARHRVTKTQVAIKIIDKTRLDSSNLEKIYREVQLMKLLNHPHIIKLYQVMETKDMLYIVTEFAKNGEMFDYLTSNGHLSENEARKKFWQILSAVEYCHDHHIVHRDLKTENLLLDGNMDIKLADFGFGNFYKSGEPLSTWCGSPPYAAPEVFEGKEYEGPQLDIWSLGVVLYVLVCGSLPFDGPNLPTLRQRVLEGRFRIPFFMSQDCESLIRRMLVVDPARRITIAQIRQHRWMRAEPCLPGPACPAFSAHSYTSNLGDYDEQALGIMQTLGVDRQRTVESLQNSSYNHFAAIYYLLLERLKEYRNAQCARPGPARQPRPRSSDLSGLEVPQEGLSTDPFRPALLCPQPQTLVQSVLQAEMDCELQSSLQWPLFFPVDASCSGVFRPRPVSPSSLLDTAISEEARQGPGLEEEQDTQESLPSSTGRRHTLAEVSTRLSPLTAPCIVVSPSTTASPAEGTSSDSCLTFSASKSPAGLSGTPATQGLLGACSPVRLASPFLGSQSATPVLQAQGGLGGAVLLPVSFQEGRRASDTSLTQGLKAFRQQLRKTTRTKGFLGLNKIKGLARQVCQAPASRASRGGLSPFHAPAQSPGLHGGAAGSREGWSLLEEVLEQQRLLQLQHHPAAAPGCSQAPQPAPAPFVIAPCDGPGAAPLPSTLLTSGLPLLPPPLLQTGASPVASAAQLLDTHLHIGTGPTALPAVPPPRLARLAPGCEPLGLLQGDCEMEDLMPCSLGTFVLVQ
T38 sequence (Q9H1R3 whole entry): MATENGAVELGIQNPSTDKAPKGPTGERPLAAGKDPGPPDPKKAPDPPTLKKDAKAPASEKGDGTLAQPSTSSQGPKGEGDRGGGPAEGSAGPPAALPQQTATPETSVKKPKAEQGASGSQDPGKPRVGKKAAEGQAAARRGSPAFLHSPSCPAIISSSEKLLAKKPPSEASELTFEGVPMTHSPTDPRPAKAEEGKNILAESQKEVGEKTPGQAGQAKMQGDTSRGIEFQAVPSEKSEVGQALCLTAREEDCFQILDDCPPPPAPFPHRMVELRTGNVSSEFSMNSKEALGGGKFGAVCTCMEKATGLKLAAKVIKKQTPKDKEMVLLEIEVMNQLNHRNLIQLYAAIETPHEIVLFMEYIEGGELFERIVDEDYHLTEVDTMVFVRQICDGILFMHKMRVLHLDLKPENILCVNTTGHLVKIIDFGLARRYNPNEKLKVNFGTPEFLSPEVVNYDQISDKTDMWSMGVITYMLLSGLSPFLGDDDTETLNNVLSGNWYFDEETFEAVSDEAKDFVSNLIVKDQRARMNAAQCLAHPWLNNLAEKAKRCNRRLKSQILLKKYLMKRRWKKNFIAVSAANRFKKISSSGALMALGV
T4 sequence (Q9BUB5 whole entry): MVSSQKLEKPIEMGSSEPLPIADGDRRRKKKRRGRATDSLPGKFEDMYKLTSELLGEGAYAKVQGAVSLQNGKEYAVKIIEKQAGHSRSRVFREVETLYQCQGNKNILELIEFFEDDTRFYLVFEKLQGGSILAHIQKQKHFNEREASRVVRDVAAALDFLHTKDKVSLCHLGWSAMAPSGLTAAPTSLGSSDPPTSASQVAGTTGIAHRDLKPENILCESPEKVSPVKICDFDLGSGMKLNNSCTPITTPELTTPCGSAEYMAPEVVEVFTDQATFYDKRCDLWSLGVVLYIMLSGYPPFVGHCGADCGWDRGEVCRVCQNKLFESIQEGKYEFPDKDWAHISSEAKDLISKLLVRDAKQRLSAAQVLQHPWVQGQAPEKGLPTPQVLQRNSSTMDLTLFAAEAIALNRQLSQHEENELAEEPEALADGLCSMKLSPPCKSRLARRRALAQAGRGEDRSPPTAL
T12 sequence (Q13177 whole entry): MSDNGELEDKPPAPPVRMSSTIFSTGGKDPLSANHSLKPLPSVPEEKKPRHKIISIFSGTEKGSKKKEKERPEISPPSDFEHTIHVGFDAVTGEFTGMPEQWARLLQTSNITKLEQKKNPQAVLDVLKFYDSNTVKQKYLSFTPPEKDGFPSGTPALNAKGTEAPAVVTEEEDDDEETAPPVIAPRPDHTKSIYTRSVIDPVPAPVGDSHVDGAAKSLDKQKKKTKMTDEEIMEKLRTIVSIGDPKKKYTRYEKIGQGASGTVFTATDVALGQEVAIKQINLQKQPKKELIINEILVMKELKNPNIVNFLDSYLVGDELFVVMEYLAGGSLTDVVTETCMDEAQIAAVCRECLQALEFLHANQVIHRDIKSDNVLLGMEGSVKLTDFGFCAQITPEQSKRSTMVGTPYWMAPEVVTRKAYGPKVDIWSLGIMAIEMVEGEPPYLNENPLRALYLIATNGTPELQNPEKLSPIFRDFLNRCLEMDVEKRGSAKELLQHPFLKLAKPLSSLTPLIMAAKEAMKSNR
T36 sequence (P00540 whole entry): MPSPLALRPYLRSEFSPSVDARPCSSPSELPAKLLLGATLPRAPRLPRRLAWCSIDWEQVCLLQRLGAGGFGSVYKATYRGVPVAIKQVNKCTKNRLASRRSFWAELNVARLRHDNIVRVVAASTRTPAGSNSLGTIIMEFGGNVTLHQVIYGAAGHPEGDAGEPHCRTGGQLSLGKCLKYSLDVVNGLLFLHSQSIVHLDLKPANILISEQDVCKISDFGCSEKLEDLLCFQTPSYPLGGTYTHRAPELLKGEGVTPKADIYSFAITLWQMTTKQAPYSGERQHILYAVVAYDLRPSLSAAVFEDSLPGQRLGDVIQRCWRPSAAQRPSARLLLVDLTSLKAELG
T43 sequence (Q9UBS0 whole entry): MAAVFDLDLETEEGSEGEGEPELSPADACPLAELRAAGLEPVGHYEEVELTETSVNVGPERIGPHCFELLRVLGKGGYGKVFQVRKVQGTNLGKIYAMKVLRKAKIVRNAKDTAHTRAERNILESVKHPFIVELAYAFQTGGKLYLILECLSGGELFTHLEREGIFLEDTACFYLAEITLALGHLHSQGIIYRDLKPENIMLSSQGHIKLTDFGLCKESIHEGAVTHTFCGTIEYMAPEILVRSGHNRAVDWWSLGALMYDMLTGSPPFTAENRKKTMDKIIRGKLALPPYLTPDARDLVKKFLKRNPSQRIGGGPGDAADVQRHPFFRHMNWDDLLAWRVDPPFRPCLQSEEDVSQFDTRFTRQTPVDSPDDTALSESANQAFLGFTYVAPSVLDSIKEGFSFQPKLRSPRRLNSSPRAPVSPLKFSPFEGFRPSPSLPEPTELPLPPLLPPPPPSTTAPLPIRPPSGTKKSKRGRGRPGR

COc1ccc(/C=C2\SC(=S)NC2=O)cc1C#C[Si](C)(C)C [FINDY]
inhibition at 10 µM (p38δ): 11.9% | inhibition at 10 µM (Erk5): -4% | inhibition at 10 µM (EEF2K): -3.7% | inhibition at 10 µM (MNK1): 6.2% | inhibition at 10 µM (EPHA1): 40.5% | inhibition at 10 µM (CDK3/CycE1): 20.7% | inhibition at 10 µM (MINK): 5% | inhibition at 10 µM (CDC7/ASK): 14.1% | inhibition at 10 µM (PLK2): 11.1% | inhibition at 10 µM (AKT2): 23.5% | inhibition at 10 µM (CK2α2/β): 72.5% | inhibition at 10 µM (PAK2): -2.5% | inhibition at 10 µM (FAK): 7.3% | inhibition at 10 µM (MAP2K1_Cascade): 44.2% | inhibition at 10 µM (Erk2): 36.4% | inhibition at 10 µM (CaMK2β): -3.3% | inhibition at 10 µM (MARK1): 46.7% | inhibition at 10 µM (MAPKAPK5): 5.2% | inhibition at 10 µM (CDK9/CycT1): 3.1% | inhibition at 10 µM (EGFR): -5.1% | inhibition at 10 µM (SIK): 15% | inhibition at 10 µM (PIK3CA/PIK3R1): 12.8% | inhibition at 10 µM (PDHK2): 14.1% | inhibition at 10 µM (PKCθ): 6.5% | inhibition at 10 µM (HER4): -13.4% | inhibition at 10 µM (NuaK2): -9.3% | inhibition at 10 µM (PKACα): 64.7% | inhibition at 10 µM (JNK2): 0.4% | inhibition at 10 µM (PBK): 14.6% | inhibition at 10 µM (EPHA5): 18.4% | inhibition at 10 µM (p70S6K): 7.4% | inhibition at 10 µM (MAPKAPK3): 29.2% | inhibition at 10 µM (LCK): 7.2% | inhibition at 10 µM (TRKC): 11.8% | inhibition at 10 µM (ARG): 15.2% | inhibition at 10 µM (MOS_Cascade): 60.1% | inhibition at 10 µM (IKKα): 4.9% | inhibition at 10 µM (skMLCK): 2% | inhibition at 10 µM (MARK4): 79.8% | inhibition at 10 µM (TAOK2): -1.2% | inhibition at 10 µM (MRCKα): 2.7% | inhibition at 10 µM (PDGFRα): 14.8% | inhibition at 10 µM (p70S6Kβ): 19.9% | inhibition at 10 µM (ITK): 1.2%
